Measured values reported in patent US7411066B2, “Amino methylated 2-pyridinones” (priority 2004, dated 2008).

How the values were obtained:
[1] = test system: NU14 adherence to type 5637 bladder cell line; assay: Infection of bladder cells in vitro (Adherence Assay); assay type: cell-based, Escherichia coli; conditions: 5637 bladder cells; untreated NU14 = 100%
Method: Infection of Bladder Cells in vitro (Adherence Assay)
The infection of bladder cells in vitro was carried out according to the following steps:
Preparation of Tissue Culture Cells (Type 5637 Bladder Cell Line)
1. Place 1 ml of RPMI/10% FBS containing 1:20 dilution of 5637 cells in each well of 24 well plate.
2. Place in incubator for 3 days or until confluent growth.
Preparation of Bacterial Cells (Strains NU14 and UTI89)
1. Inoculate 20 ml of LB containing NU14 with a single colony or a loop from a frozen stock to a 250 ml flask.
2. Static growth at 37° C. for 2 days to induce pili production.
3. Harvest cells at 4,000×g for 10 minutes.
4. Resuspend in 5 ml of PBS ([…])
Infection of Tissue Culture Cells In Vitro
1. Wash each well with PBS MgCl2/CaCl2.
2. Place 1 ml of fresh medium to each well.
3. Add 10 μl of bacterial cells to each well. Triplicate plates.
4. Spin plate at 1800 rpm for 5 minutes.
5. View under 40× to see−2-3 bacterial cells/epithelial cell.
6. Place in lower incubator for 2 hours.
7. Wash two plates 5× with PBS MgCl2/CaCl2. Lyse by addition of 0.1% sarkosyl/0.5% glucose/PBS—MgCl2/CaCl2 one set and dilute for CFU.

[2] = test system: NU14 biofilm; assay: Biofilm Assay (crystal violet stain on PVC plates); assay type: cell-based, Escherichia coli; conditions: 48 hrs at room temperature, absorbance at 600 nm; untreated NU14 = 100%
Method: The Biofilm Assay was carried out according to the following steps:
Day 1 Set Up Biofilm Growth on PVC Plates
1. Sterilize PVC plates (96-well round bottom polyvinyl chloride [PVC] plates; Falcon #353911) and PVC Lids (Falcon #353913) in tissue culture hood under UV irradiation for at least 30 min.
2. Make dilution (from overnight cultures) or suspension (from either colonies on plates or freezer stocks) of bacterial cultures. Make enough of bacterial cultures for the number of wells needed. Bacterial culture need to be very dilute: at least 1:1,000 fold dilution from overnight cultures or a small quantity from colonies or freezer stocks.
3. Add 100 μl of bacterial cultures into each well. Make sure to have 1 well with LB alone as negative control and 1 well without anything for blank.
4. Cover plates with lids and leave plates undisturbed at room temperature for 48 hrs.
Day 3 Assay Biofilm With Crystal Violet Stain
5. Prepare enough PBS (w/out Mg^2+ Ca^2+) to wash biofilm plates (need at least 3 L PBS for 1-5 plates). Could use mpH2O instead of PBS.
6. Get a clean 4 L plastic beaker. Cover the bench with a large piece of absorbent pad.
7. Fill 3 containers (large enough to dip the 96-well plates in) with PBS.
8. Start washing a biofilm plate by dumping out bacterial cultures into the beaker. (Treat contents in this beaker as biohazard. Need to bleach the content before emptying it into drain.)
9. Fill the biofilm plate in the first PBS container and shake off PBS in the beaker. Rinse the biofilm 1× in the first PBS container. Put the biofilm plate into the second PBS container and rinse 2×.
10. Put the biofilm plate in the third PBS container and let sit.
11. Proceed to wash a second biofilm plate if there are any.
12. While the second biofilm plate is in the second container, rinse the first biofilm plate 1× and remove it from PBS. Decant residual PBS by banging the plate on paper towels on the bench. Leave the plate up-side-down on a clean paper towel and let the plate dry.
13. Put the second biofilm plate into the third PBS container and let sit.
14. Proceed to wash a third biofilm plate if applicable.
15. Repeat steps 8-14 until all plates are washed.
16. Let washed biofilm plates air-dry for at least 15 min.
Crystal Violet Stain and Wash
17. Fill 4 containers (large enough to dip the 96-well plates in) with PBS.
18. With a multi-channel pipet, add 125 μl of 1% Crystal Violet (in mpH2O). Stain biofilm plates sequentially for 10 min. (not more than 15 min). Give at least 2 minute break in-between staining each plates. If more than 4 biofilm plates, might want to consider staining and washing them in batches.
19. Start washing biofilm plates as above.
20. Let the washed plates air-dry for 10 minor so. […]
24. Proceed immediately to the Plate Reader and read the absorbance of the plate at 600 nm. […]

Row | Structure (SMILES) | Adherence Assay % of Wild Type [1] [%] | Bioflim Assay % of Wild Type [2] [%]
1 | Cc1c(-c2ccccc2)c2n(c(=O)c1CN(C)C)[C@H](C(=O)[O-])CS2.[Li+] | 97.6 | 73.1
2 | CN(C)Cc1c(Cc2cccc3ccccc23)c(-c2ccccc2)c2n(c1=O)[C@H](C(=O)[O-])CS2.[Li+] | 21.8 | 6.9
3 | O=C([O-])[C@@H]1CSc2c(-c3ccccc3)c(Cc3cccc4ccccc34)c(CN3CCOCC3)c(=O)n21.[Li+] | 14.3 | 6.8
4 | O=C([O-])[C@@H]1CSc2c(C3CC3)c(Cc3cccc4ccccc34)c(CN3CCOCC3)c(=O)n21.[Li+] | 12.2 | 8.3
